# Patent publication US10882837B2, “Amide compounds and use thereof” (ALPHALA CO., LTD., priority 2017, dated 2021)
# Experiments:
# glucagon receptor (GCGR) = biological target: T1, glucagon receptor (GCGR) (Homo sapiens, UniProt P47871); test: Glucagon cAMP inhibition assay (Cisbio cAMP Dynamic 2 HTRF); format: cell-based; details: GCGR overexpressed CHO-K1 cells or human primary hepatocytes (not specified); glucagon at EC50
# T1 construct: expressed in transfected cells; host or cells: CHO-K1
# T1 sequence (P47871 26-477, species assumed): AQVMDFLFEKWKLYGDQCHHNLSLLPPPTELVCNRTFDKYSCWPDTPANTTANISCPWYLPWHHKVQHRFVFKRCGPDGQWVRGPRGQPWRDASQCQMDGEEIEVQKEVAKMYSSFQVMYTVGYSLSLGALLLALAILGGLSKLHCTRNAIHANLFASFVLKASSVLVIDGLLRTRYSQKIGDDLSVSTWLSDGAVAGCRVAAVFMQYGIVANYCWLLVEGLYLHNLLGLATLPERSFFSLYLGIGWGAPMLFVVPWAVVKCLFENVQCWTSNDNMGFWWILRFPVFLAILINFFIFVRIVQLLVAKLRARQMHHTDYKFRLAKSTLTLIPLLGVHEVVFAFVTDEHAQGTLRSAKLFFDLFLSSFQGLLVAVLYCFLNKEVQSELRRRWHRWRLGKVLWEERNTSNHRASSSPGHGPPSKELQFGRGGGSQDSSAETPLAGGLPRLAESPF
# Method in brief: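 GCGR-overexpressing CHO-K1 cells or human primary hepatocytes in HBSS with 0.1% BSA and 800 nM IBMX, pre-incubated 30 min with compound (1% DMSO final), then stimulated 30 min at room temperature with glucagon at its EC50. cAMP measured by HTRF after 60 min lysis; IC50 from non-linear regression.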
# GCGR = GCGR (Homo sapiens, UniProt P47871); test: I125-glucagon binding assay (competition, GCGR membrane fractions); set-up: expressed in transfected cells; host or cells: CHO-K1; details: competition with I125-glucagon 0.0625 nM; membrane fractions from GCGR overexpressed CHO-K1 cells
# Sequence of GCGR (P47871 26-477, species assumed): as above
# Method in brief: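 Membranes from CHO-K1 cells overexpressing GCGR (7.5 µg/well) were preincubated 5 min with serially diluted compound in 50 mM Tris pH 7.4, 0.5% BSA. I125-glucagon was then added at 0.0625 nM final and incubated 30 min at 25 °C. After filtration, bound radioactivity was counted and IC50 derived by non-linear regression.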
SMILES,IC50 (glucagon receptor (GCGR)) [nM],IC50 (GCGR) [nM]
"CCCCC(Nc1ccc(C(=O)NCCC(=O)OCC)cc1)c1ccc(-c2nnc(C(C)(C)C)o2)cc1 (stereo not shown) [Compound 1-19, Ethyl 3-(4-((1-(4-(5-(tert-butyl)-1,3,4-oxadiazol-2-yl)phenyl)pentyl)amino)benzamido)propanoate]",203,4410
"COC(=O)CCNC(=O)c1ccc(N[C@H](c2ccc(-c3nnc(-c4ccccc4)o3)cc2)C(C)C)cc1 [Compound 1-63, methyl (S)-3-(4-((2-methyl-1-(4-(5-phenyl-1,3,4-oxadiazol-2-yl)phenyl)propyl)amino)benzamido)propanoate]",28,1530
"CC(C)[C@@H](Nc1ccc(C(=O)NCCC(=O)O)cc1)c1ccc(-c2nnc(C(F)(F)F)o2)cc1 [Compound 1-58, (R)-3-(4-((2-methyl-1-(4-(5-(trifluoromethyl)-1,3,4-oxadiazol-2-yl)phenyl)propyl)amino)benzamido)propanoic acid]",> 30000,875
"CCOC(=O)CCNC(=O)c1ccc(N[C@@H](c2ccc(-c3nnc(-c4ccccc4)o3)cc2)C(C)CC)cc1 (stereo partly drawn) [Compound 1-48, ethyl 3-(4-(((1R)-2-methyl-1-(4-(5-phenyl-1,3,4-oxadiazol-2-yl)phenyl)butyl)amino)benzamido)propanoate]",164,> 30000
"CCOC(=O)CCNC(=O)c1ccc(N[C@H](c2ccc(-c3nnc(C(F)(F)F)o3)cc2)C(C)CC)cc1 (stereo partly drawn) [Compound 1-34, ethyl 3-(4-(((1S)-2-methyl-1-(4-(5-(trifluoromethyl)-1,3,4-oxadiazol-2-yl)phenyl)butyl)amino)benzamido)propanoate]",42,16100
"CCOC(=O)CCNC(=O)c1ccc(N[C@H](CC(C)C)c2ccc(-c3nnc(-c4ccccc4)o3)cc2)cc1 [Compound 1-60, ethyl (R)-3-(4-((3-methyl-1-(4-(5-phenyl-1,3,4-oxadiazol-2-yl)phenyl)butyl)amino)benzamido)propanoate]",114,> 30000
CCCCC(Nc1ccc(C(=O)NCCC(=O)OCC)cc1)c1ccc(-c2nnc(-c3ccccn3)o2)cc1 (stereo not shown) [Compound 1-15],306,578
"CCCC[C@@H](Nc1ccc(C(=O)NCCC(=O)O)cc1)c1ccc(-c2nnc(C(F)(F)F)o2)cc1 [Compound 1-54, (R)-3-(4-((1-(4-(5-(trifluoromethyl)-1,3,4-oxadiazol-2-yl)phenyl)pentyl)amino)benzamido)propanoic acid]",3670,3070
"CCCCC(Nc1ccc(C(=O)NCCC(=O)O)cc1)c1ccc(-c2nnc(-c3ccccn3)o2)cc1 (stereo not shown) [Compound 1-16, 3-(4-((1-(4-(5-(Pyridin-2-yl)-1,3,4-oxadiazol-2-yl)phenyl)pentyl)amino)benzamido)propanoic acid]",15700,203
"CCCC[C@H](Nc1ccc(C(=O)NCCC(=O)OCC)cc1)c1ccc(-c2nnc(-c3ccccn3)o2)cc1 [Compound 1-43, ethyl (S)-3-(4-((1-(4-(5-(pyridin-2-yl)-1,3,4-oxadiazol-2-yl)phenyl)pentyl)amino)benzamido)propanoate]",46.4,1480
"CCCCC(Nc1ccc(C(=O)NCCC(=O)OCC)cc1)c1ccc(-c2nnc(C(F)(F)F)o2)cc1 (stereo not shown) [Compound 1-33, ethyl 3-(4-((1-(4-(5-(trifluoromethyl)-1,3,4-oxadiazol-2-yl)phenyl)pentyl)amino)benzamido)propanoate]",142,> 30000
"CCOC(=O)CCNC(=O)c1ccc(N[C@H](c2ccc(-c3nnc(C(F)(F)F)o3)cc2)C(C)C)cc1 [Compound 1-55, ethyl (S)-3-(4-((2-methyl-1-(4-(5-(trifluoromethyl)-1,3,4-oxadiazol-2-yl)phenyl)propyl)amino)benzamido)propanoate]",1360,> 30000
"CCCC[C@@H](Nc1ccc(C(=O)NCCC(=O)OCC)cc1)c1ccc(-c2nnc(-c3ccccn3)o2)cc1 [Compound 1-44, ethyl (R)-3-(4-((1-(4-(5-(pyridin-2-yl)-1,1,3,4-oxadiazol-2-yl)phenyl)pentyl)amino)benzamido propanoate]",830,> 30000
"CC(C)[C@@H](Nc1ccc(C(=O)NCCC(=O)O)cc1)c1ccc(-c2nnc(-c3ccccc3)o2)cc1 [Compound 1-42, (R)-3-(4-(2-methyl-1-(4-(5-phenyl-1,3,4-oxadiazol-2-yl)phenyl)propylamino)benzamido)propanoic acid]",2930,2920
"CC(C)[C@H](Nc1ccc(C(=O)NCCC(=O)O)cc1)c1ccc(-c2nnc(-c3ccccc3)o2)cc1 [Compound 1-41, (S)-3-(4-(2-methyl-1-(4-(5-phenyl-1,3,4-oxadiazol-2-yl)phenyl)propylamino)benzamido)propanoic acid]",2710,107

# The remaining lines, values ahead:
IC50 (glucagon receptor (GCGR)) [nM],IC50 (GCGR) [nM],SMILES
329,164,"CCCCC(Nc1ccc(C(=O)NCCC(=O)O)cc1)c1ccc(-c2noc(C(C)(C)C)n2)cc1 (stereo not shown) [Compound 2-4, 3-(4-((1-(4-(5-(tert-butyl)-1,2,4-oxadiazol-3-yl)phenyl)pentyl)amino)benzamido)propanoic acid]"
450,106,"O=C(O)CCNC(=O)c1ccc(NC(c2ccc(-c3noc(-c4ccccc4)n3)cc2)C2CCCC2)cc1 (stereo not shown) [Compound 2-15, 3-(4-((cyclopentyl(4-(5-phenyl-1,2,4-oxadiazol-3-yl)phenyl)methyl)amino)benzamido)propanoic acid]"
311,963,"CCOC(=O)CCNC(=O)c1ccc(C(Nc2ccc(-c3nnc(-c4ccccc4)o3)cc2)C(C)CC)cc1 (stereo not shown) [Compound 3-5, ethyl 3-(4-(2-methyl-1-((4-(5-phenyl-1,3,4-oxadiazol-2-yl)phenyl)amino)butyl)benzamido)propanoate]"
1390,274,"CC(C)CC(Nc1ccc(C(=O)NCCC(=O)O)cc1)c1ccc(-c2noc(-c3cccs3)n2)cc1 (stereo not shown) [Compound 2-14, 3-(4-((3-methyl-1-(4-(5-(thiophen-2-yl)-1,2,4-oxadiazol-3-yl)phenyl)butyl)amino)benzamido)propanoic acid]"
237,755,"CCOC(=O)CCNC(=O)c1ccc(N[C@@H](c2ccc(-c3nc4ccccc4o3)cc2)C2CCCC2)cc1 [Compound 4-11, ethyl (R)-3-(4-(((4-(benzo[d]oxazol-2-yl)phenyl)(cyclopentyl)methyl)amino)benzamido)propanoate]"
245,673,"CCOC(=O)CCNC(=O)c1ccc(N[C@@H](c2ccc(-c3noc(-c4ccccc4)n3)cc2)C(C)C)cc1 [Compound 2-22, ethyl (R)-3-(4-((2-methyl-1-(4-(5-phenyl-1,2,4-oxadiazol-3-yl)phenyl)propyl)amino)benzamido)propanoate]"
65,308,"CCOC(=O)CCNC(=O)c1ccc(N[C@H](c2ccc(-c3nc4ccccc4o3)cc2)C2CCCC2)cc1 [Compound 4-23, ethyl (S)-3-(4-(((4-(benzo[d]oxazol-2-yl)phenyl)(cyclopentyl)methyl)amino)benzamido)propanoate]"
442,> 30000,"CCOC(=O)CCNC(=O)c1ccc(C(Nc2ccc(-c3nnc(-c4ccc(F)cc4)o3)cc2)C(C)C)cc1 (stereo not shown) [Compound 3-9, ethyl 3-(4-(1-((4-(5-(4-fluorophenyl)-1,3,4-oxadiazol-2-yl)phenyl)amino)-2-methylpropyl)benzamido)propanoate]"
361,31600,"CCOC(=O)CCNC(=O)c1ccc(N[C@H](CC(C)C)c2ccc(-c3nc4ccccc4o3)cc2)cc1 [Compound 4-13, ethyl (R)-3-(4-((1-(4-(benzo[d]oxazol-2-yl)phenyl)-3-methylbutyl)amino)benzamido)propanoate]"
959,124,"CC(C)CC(Nc1ccc(C(=O)NCCC(=O)O)cc1)c1ccc(-c2noc(-c3ccccc3)n2)cc1 (stereo not shown) [Compound 2-10, 3-(4-((3-methyl-1-(4-(5-phenyl-1,2,4-oxadiazol-3-yl)phenyl)butyl)amino)benzamido)propanoic acid]"
785,36,"CCCC[C@H](Nc1ccc(C(=O)NCCC(=O)O)cc1)c1ccc(-c2nc3ccccc3o2)cc1 [Compound 4-16, (S)-3-(4-((1-(4-(benzo[d]oxazol-2-yl)phenyl)pentyl)amino)benzamido)propanoic acid]"
878,171,"CC(C)C(Nc1ccc(C(=O)NCCC(=O)O)cc1)c1ccc(-c2noc(C(C)(C)C)n2)cc1 (stereo not shown) [Compound 2-2, 3-(4-((1-(4-(5-(tert-butyl)-1,2,4-oxadiazol-3-yl)phenyl)-2-methylpropyl)amino)benzamido)propanoic acid]"
4500,143,"CC(C)C(Nc1ccc(-c2nnc(-c3ccc(F)cc3)o2)cc1)c1ccc(C(=O)NCCC(=O)O)cc1 (stereo not shown) [Compound 3-10, 3-(4-(1-((4-(5-(4-fluorophenyl)-1,3,4-oxadiazol-2-yl)phenyl)amino)-2-methylpropyl)benzamido)propanoic acid]"
984,17,"CCC(C)[C@H](Nc1ccc(C(=O)NCCC(=O)O)cc1)c1ccc(-c2nc3ccccc3o2)cc1 (stereo partly drawn) [Compound 4-20, 3-(4-(((1S)-1-(4-(benzo[d]oxazol-2-yl)phenyl)-2-methylbutyl)amino)benzamido)propanoic acid]"
